Values after ≈ are worked out from the molar mass of the structure shown.
Legend:
Type in all cases: functional
Nakaseomyces glabratus = assay: Antifungal activity against Clinical isolate Candida glabrata assessed as inhibition of visible growth
Candida tropicalis = assay: Antifungal activity against Candida tropicalis CGMCC 2.3739 assessed as inhibition of visible growth
Candida albicans [1] = assay: Antifungal activity against Candida albicans SC 5314 assessed as inhibition of visible growth
Pichia kudriavzevii = assay: Antifungal activity against Candida krusei AS 2.1045 assessed as inhibition of visible growth
Cryptococcus neoformans = assay: Antifungal activity against Cryptococcus neoformans CGMCC 2.3161 assessed as inhibition of visible growth
Candida albicans [2] = assay: Antifungal activity against Candida albicans CPCC 400616 assessed as inhibition of visible growth
Candida parapsilosis = assay: Antifungal activity against Candida parapsilosis GIM 2.190 assessed as inhibition of visible growth; details: Lodderomyces parapsilosis

Row | MIC80 (Nakaseomyces glabratus) | MIC80 (Candida tropicalis) | MIC80 (Candida albicans [1]) | MIC80 (Pichia kudriavzevii) | MIC80 (Cryptococcus neoformans) | MIC80 (Candida albicans [2]) | MIC80 (Candida parapsilosis) | SMILES
1 | 0.012 mg/L (≈ 0.0248 µM) | 0.006 mg/L (≈ 0.0124 µM) | 0.006 mg/L (≈ 0.0124 µM) | 0.012 mg/L (≈ 0.0248 µM) | 0.012 mg/L (≈ 0.0248 µM) | 0.006 mg/L (≈ 0.0124 µM) | 0.006 mg/L (≈ 0.0124 µM) | C[C@@H](N(C)Cc1ccc(-c2ccc(Cl)cc2)cc1)[C@](O)(Cn1cncn1)c1ccc(F)cc1F
2 | 0.025 mg/L (≈ 0.0513 µM) | 0.006 mg/L (≈ 0.0123 µM) | 0.006 mg/L (≈ 0.0123 µM) | 0.012 mg/L (≈ 0.0246 µM) | 0.012 mg/L (≈ 0.0246 µM) | 0.006 mg/L (≈ 0.0123 µM) | 0.006 mg/L (≈ 0.0123 µM) | CN(Cc1ccc(-c2ccc(Cl)cc2F)cc1)CC(O)(Cn1cncn1)c1ccc(F)cc1F (stereo not drawn)
3 | 0.4 mg/L (≈ 0.872 µM) | 0.025 mg/L (≈ 0.0545 µM) | 0.025 mg/L (≈ 0.0545 µM) | 0.4 mg/L (≈ 0.872 µM) | 0.4 mg/L (≈ 0.872 µM) | 0.05 mg/L (≈ 0.109 µM) | 0.1 mg/L (≈ 0.218 µM) | CN(Cc1ccc(-c2ccc(Cl)cc2)o1)CC(O)(Cn1cncn1)c1ccc(F)cc1F (stereo not drawn)
4 | 0.1 mg/L (≈ 0.213 µM) | 0.012 mg/L (≈ 0.0255 µM) | 0.012 mg/L (≈ 0.0255 µM) | 0.025 mg/L (≈ 0.0532 µM) | 0.05 mg/L (≈ 0.106 µM) | 0.012 mg/L (≈ 0.0255 µM) | 0.006 mg/L (≈ 0.0128 µM) | CN(Cc1ccc(-c2ccc(Cl)cc2)nc1)CC(O)(Cn1cncn1)c1ccc(F)cc1F (stereo not drawn)
5 | 0.025 mg/L (≈ 0.0513 µM) | 0.006 mg/L (≈ 0.0123 µM) | 0.006 mg/L (≈ 0.0123 µM) | 0.025 mg/L (≈ 0.0513 µM) | 0.012 mg/L (≈ 0.0246 µM) | 0.006 mg/L (≈ 0.0123 µM) | 0.006 mg/L (≈ 0.0123 µM) | CN(Cc1ccc(-c2ccc(Cl)cc2)cc1F)CC(O)(Cn1cncn1)c1ccc(F)cc1F (stereo not drawn)
6 | 0.4 mg/L (≈ 0.84 µM) | 0.025 mg/L (≈ 0.0525 µM) | 0.012 mg/L (≈ 0.0252 µM) | 0.2 mg/L (≈ 0.42 µM) | 0.8 mg/L (≈ 1.68 µM) | 0.012 mg/L (≈ 0.0252 µM) | 0.012 mg/L (≈ 0.0252 µM) | CN(Cc1nc(-c2ccc(Cl)cc2)cs1)CC(O)(Cn1cncn1)c1ccc(F)cc1F (stereo not drawn)
7 | 0.012 mg/L (≈ 0.0254 µM) | 0.006 mg/L (≈ 0.0127 µM) | 0.006 mg/L (≈ 0.0127 µM) | 0.012 mg/L (≈ 0.0254 µM) | 0.012 mg/L (≈ 0.0254 µM) | 0.006 mg/L (≈ 0.0127 µM) | 0.006 mg/L (≈ 0.0127 µM) | [2H]C([2H])([2H])N(Cc1ccc(-c2ccc(Cl)cc2)cc1)CC(O)(Cn1cncn1)c1ccc(F)cc1F (stereo not drawn)
8 | 0.1 mg/L (≈ 0.216 µM) | 0.012 mg/L (≈ 0.0259 µM) | 0.025 mg/L (≈ 0.0539 µM) | 0.05 mg/L (≈ 0.108 µM) | 0.025 mg/L (≈ 0.0539 µM) | 0.012 mg/L (≈ 0.0259 µM) | 0.012 mg/L (≈ 0.0259 µM) | CCc1ccc(-c2ccc(CN(C)CC(O)(Cn3cncn3)c3ccc(F)cc3F)nc2)cc1 (stereo not drawn)

Further lines, the compound ahead of its results:

Row | SMILES | MIC80 (Nakaseomyces glabratus) | MIC80 (Candida tropicalis) | MIC80 (Candida albicans [1]) | MIC80 (Pichia kudriavzevii) | MIC80 (Cryptococcus neoformans) | MIC80 (Candida albicans [2]) | MIC80 (Candida parapsilosis)
9 | CN(Cc1ccc(-c2cccc(F)c2)cn1)CC(O)(Cn1cncn1)c1ccc(F)cc1F (stereo not drawn) | 0.8 mg/L (≈ 1.76 µM) | 0.012 mg/L (≈ 0.0265 µM) | 0.025 mg/L (≈ 0.0551 µM) | 0.2 mg/L (≈ 0.441 µM) | 0.05 mg/L (≈ 0.11 µM) | 0.025 mg/L (≈ 0.0551 µM) | 0.012 mg/L (≈ 0.0265 µM)
10 | CN(Cc1nc(-c2ccc(C(F)(F)F)cc2)cs1)CC(O)(Cn1cncn1)c1ccc(F)cc1F (stereo not drawn) | 3.2 mg/L (≈ 6.28 µM) | 0.025 mg/L (≈ 0.0491 µM) | 0.012 mg/L (≈ 0.0236 µM) | 0.8 mg/L (≈ 1.57 µM) | 0.2 mg/L (≈ 0.393 µM) | 0.025 mg/L (≈ 0.0491 µM) | 0.012 mg/L (≈ 0.0236 µM)
11 | CN(Cc1ccc(-c2ccccc2F)cn1)CC(O)(Cn1cncn1)c1ccc(F)cc1F (stereo not drawn) | 0.8 mg/L (≈ 1.76 µM) | 0.012 mg/L (≈ 0.0265 µM) | 0.012 mg/L (≈ 0.0265 µM) | 0.4 mg/L (≈ 0.882 µM) | 0.1 mg/L (≈ 0.221 µM) | 0.025 mg/L (≈ 0.0551 µM) | 0.012 mg/L (≈ 0.0265 µM)
12 | CN(Cc1ccc(-c2ccc(C(F)(F)F)cc2)nc1)CC(O)(Cn1cncn1)c1ccc(F)cc1F (stereo not drawn) | 0.2 mg/L (≈ 0.397 µM) | 0.012 mg/L (≈ 0.0238 µM) | 0.012 mg/L (≈ 0.0238 µM) | 0.025 mg/L (≈ 0.0497 µM) | 0.025 mg/L (≈ 0.0497 µM) | 0.012 mg/L (≈ 0.0238 µM) | 0.006 mg/L (≈ 0.0119 µM)
13 | CN(Cc1ccc(-c2ccccc2)cn1)CC(O)(Cn1cncn1)c1ccc(F)cc1F (stereo not drawn) | 0.8 mg/L (≈ 1.84 µM) | 0.025 mg/L (≈ 0.0574 µM) | 0.012 mg/L (≈ 0.0276 µM) | 0.2 mg/L (≈ 0.459 µM) | 0.1 mg/L (≈ 0.23 µM) | 0.025 mg/L (≈ 0.0574 µM) | 0.025 mg/L (≈ 0.0574 µM)
14 | CN(Cc1ccc(-c2ccc(C(C)(C)C)cc2)cn1)CC(O)(Cn1cncn1)c1ccc(F)cc1F (stereo not drawn) | 0.2 mg/L (≈ 0.407 µM) | 0.006 mg/L (≈ 0.0122 µM) | 0.012 mg/L (≈ 0.0244 µM) | 0.1 mg/L (≈ 0.203 µM) | 0.012 mg/L (≈ 0.0244 µM) | 0.025 mg/L (≈ 0.0509 µM) | 0.012 mg/L (≈ 0.0244 µM)
15 | CN(Cc1cnc(-c2ccc(C(F)(F)F)cc2)s1)CC(O)(Cn1cncn1)c1ccc(F)cc1F (stereo not drawn) | 0.2 mg/L (≈ 0.393 µM) | 0.006 mg/L (≈ 0.0118 µM) | 0.025 mg/L (≈ 0.0491 µM) | 0.2 mg/L (≈ 0.393 µM) | 0.4 mg/L (≈ 0.785 µM) | 0.025 mg/L (≈ 0.0491 µM) | 0.05 mg/L (≈ 0.0981 µM)
16 | CN(Cc1ccc(-c2ccc(OC(F)(F)F)cc2)cn1)CC(O)(Cn1cncn1)c1ccc(F)cc1F (stereo not drawn) | 0.05 mg/L (≈ 0.0963 µM) | 0.012 mg/L (≈ 0.0231 µM) | 0.012 mg/L (≈ 0.0231 µM) | 0.025 mg/L (≈ 0.0481 µM) | 0.025 mg/L (≈ 0.0481 µM) | 0.012 mg/L (≈ 0.0231 µM) | 0.006 mg/L (≈ 0.0116 µM)
17 | CN(Cc1ccc(-c2ccc(OCC(F)(F)F)cc2)cn1)CC(O)(Cn1cncn1)c1ccc(F)cc1F (stereo not drawn) | 0.1 mg/L (≈ 0.187 µM) | 0.012 mg/L (≈ 0.0225 µM) | 0.012 mg/L (≈ 0.0225 µM) | 0.05 mg/L (≈ 0.0937 µM) | 0.1 mg/L (≈ 0.187 µM) | 0.012 mg/L (≈ 0.0225 µM) | 0.012 mg/L (≈ 0.0225 µM)
18 | CN(Cc1ccc(-c2ccc(OC(F)(F)F)cc2)nc1)CC(O)(Cn1cncn1)c1ccc(F)cc1F (stereo not drawn) | 0.05 mg/L (≈ 0.0963 µM) | 0.025 mg/L (≈ 0.0481 µM) | 0.012 mg/L (≈ 0.0231 µM) | 0.025 mg/L (≈ 0.0481 µM) | 0.05 mg/L (≈ 0.0963 µM) | 0.012 mg/L (≈ 0.0231 µM) | 0.006 mg/L (≈ 0.0116 µM)
19 | CN(Cc1cnc(-c2ccc(OC(F)(F)F)cc2)s1)CC(O)(Cn1cncn1)c1ccc(F)cc1F (stereo not drawn) | 0.2 mg/L (≈ 0.381 µM) | 0.006 mg/L (≈ 0.0114 µM) | 0.025 mg/L (≈ 0.0476 µM) | 0.1 mg/L (≈ 0.19 µM) | 0.1 mg/L (≈ 0.19 µM) | 0.025 mg/L (≈ 0.0476 µM) | 0.05 mg/L (≈ 0.0951 µM)
